# Laboratory results from patent publication US11566007B2, “Ras inhibitors” (Revolution Medicines, Inc., priority 2019, dated 2023).
# Legend:
# [1] = test system: NCI-H358 cells (K-Ras G12C); test: Potency assay: pERK in NCI-H358 cells; format: cell-based, human; conditions: Homo sapiens, NCI-H358; H358 KRAS G12C; read-out: pERK EC50
# Method in brief: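 Inhibition of cellular pERK after a 4 h treatment, detected by AlphaLISA or In-Cell Western. IC50 from a four-parameter concentration-response fit.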
# [2] = target: KRAS WT (Homo sapiens (Human), UniProt P01116+P62937); test: Ras-Raf (BRAF RBD) disruption / FRET / MOA assay, KRAS WT; format: biochemical; conditions: read-out: IC50* KRAS WT FRET data
# KRAS WT, sequence (P01116-2 other isoform, or with tags, fused parts or gaps): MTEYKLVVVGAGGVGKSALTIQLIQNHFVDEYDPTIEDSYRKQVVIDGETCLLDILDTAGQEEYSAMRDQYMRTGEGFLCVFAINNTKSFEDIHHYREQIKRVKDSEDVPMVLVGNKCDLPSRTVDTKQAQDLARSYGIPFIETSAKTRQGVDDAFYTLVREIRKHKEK
# KRAS WT, sequence (P62937 whole entry): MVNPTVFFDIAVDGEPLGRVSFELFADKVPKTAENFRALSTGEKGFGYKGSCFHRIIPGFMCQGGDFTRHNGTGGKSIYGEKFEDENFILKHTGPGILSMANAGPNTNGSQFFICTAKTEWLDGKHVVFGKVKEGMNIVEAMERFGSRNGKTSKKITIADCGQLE
# Method in brief: (§1)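 Compounds, top final concentration 30 μM in 10-point 3-fold series, incubated 3 hours at 25° C with nucleotide-loaded Ras, cyclophilin A and BRAF RBD.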
# [3] = target: KRAS G12S (Homo sapiens (Human), UniProt P01116+P62937, G12S); test: Ras-Raf (BRAF RBD) disruption / FRET / MOA assay, KRAS G12S; format: biochemical; conditions: Ras-Raf disruption/FRET/MOA assay; class symbols; read-out: KRAS G12S FRET data IC50
# KRAS G12S, sequence (P01116-2 other isoform, or with tags, fused parts or gaps G12S): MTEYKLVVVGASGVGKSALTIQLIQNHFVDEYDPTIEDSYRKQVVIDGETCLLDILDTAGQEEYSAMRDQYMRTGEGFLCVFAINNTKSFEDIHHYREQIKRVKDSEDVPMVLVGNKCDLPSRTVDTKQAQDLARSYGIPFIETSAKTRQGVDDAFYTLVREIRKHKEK
# KRAS G12S, sequence (P62937 whole entry): as the sequence (P62937 whole entry) above
# Method in brief: as §1
# [4] = test system: NCI-H358 (K-Ras G12C); test: CellTiter-Glo cell viability assay, NCI-H358; format: cell-based, human; conditions: Homo sapiens, NCI-H358, 120 h, NCI-H358, 5-day treatment; class symbols; read-out: Additional H358 Cell Viability assay data (K-Ras G12C, IC50)
# Method in brief: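 Compounds were dispensed directly onto K-Ras mutant cells and incubated until day 5, then plates were equilibrated to room temperature for about 30 minutes before CellTiter-Glo luminescence. Signals were normalized as (sample/average DMSO)*100 and fitted by four-parameter logistic fit.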
# [5] = target: NRAS Q61R (Homo sapiens (Human), UniProt P01111+P62937, Q61R); test: Ras-Raf (BRAF RBD) disruption / FRET / MOA assay, NRAS Q61R; format: biochemical; conditions: NRAS Q61R; Ras-Raf disruption/FRET/MOA assay; read-out: IC50* NRAS Q61R FRET data
# NRAS Q61R, sequence (P01111 whole entry Q61R): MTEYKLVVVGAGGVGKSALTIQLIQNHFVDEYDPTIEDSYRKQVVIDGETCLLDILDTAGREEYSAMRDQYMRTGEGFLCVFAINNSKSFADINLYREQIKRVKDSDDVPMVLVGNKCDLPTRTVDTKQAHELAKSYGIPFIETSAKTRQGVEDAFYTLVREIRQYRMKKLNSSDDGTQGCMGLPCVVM
# NRAS Q61R, sequence (P62937 whole entry): as the sequence (P62937 whole entry) above
# Method in brief: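 TR-FRET disruption of nucleotide-loaded Ras binding to BRAF RBD via compound-driven ternary complex with cyclophilin A. Compound as 10-point 3-fold series from 30 μM final, 3 h at 25° C, then anti-His Eu-W1024 (10 nM) and anti-GST allophycocyanin (50 nM) for 1.5 h. IC50 from decreased FRET ratio versus DMSO.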
SMILES,EC50 [1] [µM],IC50 [2] [µM],IC50 [3] [µM],IC50 [4] [µM],IC50 [5] [µM]
"C=CC(=O)N1CC2(COCCN2C(=O)N(C)[C@H](C(=O)N[C@H]2Cc3nc(cs3)-c3ccc4c(c3)c(c(-c3cccnc3[C@H](C)OC)n4CC)CC(C)(C)COC(=O)[C@@H]3CCCN(N3)C2=O)C(C)C)C1 (atropisomer, axis not shown) [Example A352]",< 5,1 to 10,> 10,< 0.01,1 to 10
"CO[C@@H](C)c1ncccc1-c1c2c3cc(ccc3n1CC(F)(F)F)-c1csc(n1)C[C@H](NC(=O)CCOC1CN(C(=O)C#CC(C)(C)N(C)C)C1)C(=O)N1CCC[C@H](N1)C(=O)OCC(C)(C)C2 (atropisomer, axis not shown) [Example A380]",< 5,1 to 10,1 to 10,< 0.01,1 to 10
"CCn1c(-c2cccnc2[C@H](C)OC)c2c3cc(ccc31)N1CCO[C@@H](C[C@H](NC(=O)[C@@H](COC3CCN(C(=O)C#CC(C)(C)N(C)C)CC3)C(C)C)C(=O)N3CCC[C@H](N3)C(=O)OCC(C)(C)C2)C1 (atropisomer, axis not shown) [Example A643, (2R)-2-(((1-(4-(dimethylamino)-4-methylpent-2-ynoyl)piperidin-4-yl)oxy)methyl)-N-((2^2S,6^3S,4S)-1^1-ethyl-1^2-(2-((S)-1-methoxyethyl)pyridin-3-yl)-10,10-dimethyl-5,7-dioxo-6^1,6^2,6^3,6^4,6^5,6^6-hexahydro-1^1H-8-oxa-2(4,2)-morpholina-1(5,3)-indola-6(1,3)-pyridazinacycloundecaphane-4-yl)-3-methylbutanamide]",< 5,> 10,> 10,< 0.01,> 10
"C=CC(=O)N1C[C@H](C)N(C(=O)N(C)[C@H](C(=O)N[C@H]2Cc3nc(cs3)-c3ccc4c(c3)c(c(-c3cccnc3[C@H](C)OC)n4CC)CC(C)(C)COC(=O)[C@@H]3CCCN(N3)C2=O)C(C)C)CC12CC2 (atropisomer, axis not shown) [Example A586]",< 5,0.1 to 1,0.1 to 1,0.01 to 0.1,0.1 to 1
"C=CC(=O)N1CC[C@@]2(COCCN2C(=O)N(C)[C@H](C(=O)N[C@H]2Cc3nc(cs3)-c3ccc4c(c3)c(c(-c3cccnc3[C@H](C)OC)n4CC)CC(C)(C)COC(=O)[C@@H]3CCCN(N3)C2=O)C(C)C)C1 (atropisomer, axis not shown) [Example A677]",< 5,0.1 to 1,0.1 to 1,< 0.01,0.1 to 1
"C=CC(=O)N1CCC[C@@H]2CN(C(=O)N(C)[C@H](C(=O)N[C@H]3Cc4nc(cs4)-c4ccc5c(c4)c(c(-c4cccnc4[C@H](C)OC)n5CC)CC(C)(C)COC(=O)[C@@H]4CCCN(N4)C3=O)C(C)C)C[C@@H]21 (atropisomer, axis not shown) [Example A619]",< 5,1 to 10,1 to 10,0.01 to 0.1,0.1 to 1
CCn1c(-c2cccnc2[C@H](C)OC)c2c3cc(ccc31)-c1cccc(c1)C[C@H](NC(=O)[C@H](C(C)C)N1CC[C@@]3(CCN(C(=O)C#C[C@@H]4COCCN4C4COC4)C3)C1=O)C(=O)N1CCC[C@H](N1)C(=O)OCC(C)(C)C2 [Example A566],< 5,1 to 10,1 to 10,< 0.01,1 to 10
"C=CC(=O)N(C)[C@@H]1C[C@H]1N(C)C(=O)N(C)[C@H](C(=O)N[C@H]1Cc2nc(cs2)-c2ccc3c(c2)c(c(-c2cccnc2[C@H](C)OC)n3CC)CC(C)(C)COC(=O)[C@@H]2CCCN(N2)C1=O)C(C)C (atropisomer, axis not shown) [Example A739]",< 5,0.1 to 1,1 to 10,0.01 to 0.1,1 to 10
"C=CC(=O)N1C[C@H](C)N(C(=O)N(C)[C@H](C(=O)N[C@H]2Cc3nc(cs3)-c3ccc4c(c3)c(c(-c3cccnc3[C@H](C)OC)n4CC)CC(C)(C)COC(=O)[C@@H]3CCCN(N3)C2=O)C(C)C)[C@@H](C)C1 (atropisomer, axis not shown) [Example A386]",< 5,0.01 to 0.1,0.1 to 1,0.01 to 0.1,0.01 to 0.1
C=CC(=O)N1CC[C@H](C(=O)N(C)[C@H](C(=O)N[C@H]2Cc3cc(O)cc(c3)-c3ccc4c(c3)c(c(-c3cc(C#N)cnc3COC)n4CC)CC(C)(C)COC(=O)[C@@H]3CCCN(N3)C2=O)C(C)C)C1 [Example A105],< 5,0.1 to 1,0.1 to 1,0.01 to 0.1,0.1 to 1
"C=CC(=O)N(C)CCN1CCN(C(=O)N(C)[C@H](C(=O)N[C@H]2Cc3nc(cs3)-c3ccc4c(c3)c(c(-c3cccnc3[C@H](C)OC)n4CC)CC(C)(C)COC(=O)[C@@H]3CCCN(N3)C2=O)C(C)C)CC1 (atropisomer, axis not shown) [Example A630]",< 5,0.1 to 1,0.1 to 1,0.01 to 0.1,0.1 to 1
"C=CC(=O)N1CC[C@H](C(=O)N(C)[C@H](C(=O)N[C@H]2Cc3cccc(c3)-c3ccc4c(c3)c(c(-c3cnccc3[C@H](C)OC)n4CC)CC(C)(C)COC(=O)[C@@H]3CCCN(N3)C2=O)C(C)C)C1 (single isomer, unassigned) [Example A115]",< 5,1 to 10,1 to 10,0.01 to 0.1,1 to 10
"C=CC(=O)N1CC[C@H](C(=O)N(C)[C@H](C(=O)N[C@H]2Cc3cc(cc(C(F)F)c3)-c3ccc4c(c3)c(c(-c3cccnc3[C@H](C)OC)n4CC)CC(C)(C)COC(=O)[C@@H]3CCCN(N3)C2=O)C(C)C)C1 (atropisomer, axis not shown) [Example A341, (3S)-1-acryloyl-N-((2S)-1-(((6^3S,4S)-2^5-(difluoromethyl)-1^1-ethyl-1^2-(2-((S)-1-methoxyethyl)pyridin-3-yl)-10,10-dimethyl-5,7-dioxo-6^1,6^2,6^3,6^4,6^5,6^6-hexahydro-1^1H-8-oxa-1(5,3)-indola-6(1,3)-pyridazina-2(1,3)-benzenacycloundecaphane-4-yl)amino)-3-methyl-1-oxobutan-2-yl)-N-methylpyrrolidine-3-carboxamide]",< 5,1 to 10,1 to 10,0.01 to 0.1,1 to 10
"C=CC(=O)N1CCOC2(CCN(C(=O)N(C)[C@H](C(=O)N[C@H]3Cc4cccc(c4)-c4ccc5c(c4)c(c(-c4cccnc4[C@H](C)OC)n5CC(F)(F)F)CC(C)(C)COC(=O)[C@@H]4CCCN(N4)C3=O)C(C)C)CC2)C1 (atropisomer, axis not shown) [Example A608]",< 5,0.1 to 1,0.1 to 1,0.01 to 0.1,0.1 to 1
"C=CC(=O)N1CC[C@@]2(C1)CN(C(=O)N(C)[C@H](C(=O)N[C@H]1Cc3nc(cs3)-c3ccc4c(c3)c(c(-c3cccnc3[C@H](C)OC)n4CC)CC(C)(C)COC(=O)[C@@H]3CCCN(N3)C1=O)C(C)C)CCO2 (atropisomer, axis not shown) [Example A353]",< 5,0.1 to 1,0.1 to 1,0.01 to 0.1,0.1 to 1
"CCn1c(-c2cccnc2[C@H](C)OC)c2c3cc(ccc31)-c1cccc(c1)C[C@H](NC(=O)[C@@H](COC1CN(C(=O)C#C[C@H]3COCCN3C)C1)C(C)C)C(=O)N1CCC[C@H](N1)C(=O)OCC(C)(C)C2 (atropisomer, axis not shown) [Example A644]",< 5,> 10,> 10,< 0.01,> 10
